Assay results from patent US20210275498A1, “IMIDAZOLYL ETHANAMIDE PENTANDIOIC ACID FOR USE IN THERAPY OF SYMPTOMS RELATED TO EXPOSURE TO LETHAL RADIATION” (priority 2018, published 2021).

Assays:
C57BL/6 mice [1] = test: Body weight after whole-body irradiation (response profile analysis); assay type: in vivo; parameters: key to Supporting variable: Body weight (trend): positive trend (descriptively) +; negative trend (descriptively) −; no difference (descriptively) 0; settings: for Body weight: % Difference from Baseline (g) (difference to vehicle group 2 at Day 0) / Body weight: % Difference from Vehicle: 5.8 Gy
Procedure: Body weights were assessed twice during acclimation (including Day −3), once prior to irradiation (Day 0), and every 3 days thereafter. Terminal body weights were also collected, with the exception of Animal 4012.
The longitudinal data were analyzed taking into account the mean weight over time in each group and the covariance among the repeated measures by response profile analysis (Fitzmaurice et al., Wiley 2004, p 103-140.). The analysis was specified as a regression model with unstructured covariance to account for the correlation among repeated body weights of the same mouse and indicator variables for treatment groups and time, where the vehicle treatment was used as the reference group and Day 0 was taken as a reference for time.
The response profile analyses provide the following regression coefficients estimated by the restricted maximum likelihood (REML) method: intercept—mean body weight in the reference groups VL (POx1);2 and VH (POx1);8 at Day 0 treatment—difference between the mean body weight in the treatment groups and the vehicle groups at Day 0 time—body weight change from baseline in the reference groups treatment×time—treatment effect at each day estimated by comparison of change from baseline in the treatment groups and control groups For all regression coefficients, p-values and 95%-confidence intervals are provided. This method provides interpretable estimates, is valid if treatment groups differ at baseline, allows for arbitrary patterns in the mean body weight over time (no specific time trend e. g. linear curve assumed) and arbitrary patterns in the covariance. The analysis has certain robustness, as potential risks due to model misspecification are minimal.

C57BL/6 mice [2] = test: Gross pathology and histopathology (testes degeneration, bone marrow cellularity) after whole-body irradiation; assay type: in vivo; parameters: key to Supporting variable: Bone marrow celluarity (trend) / Supporting variable: Testes degradation (trend): positive trend (descriptively) +; negative trend (descriptively) −; no difference (descriptively) 0

SMILES: O=C(O)CCCC(=O)NCCc1c[nH]cn1 [Myelo001, 5-{[2-(1H-imidazol-4-yl)ethyl]amino}-5-oxo-pentanoic acid]
- Body weight: % Difference from Baseline (g) (difference to vehicle group 2 at Day 0) (C57BL/6 mice [1]; Day 0, Group 3 ML (IPx2): 25 mg/kg IP, Day −3 to 0 (6x), prophylactic): -0.8 g
- Body weight: % Difference from Baseline (g) (difference to vehicle group 2 at Day 0) (C57BL/6 mice [1]; Day 0, Group 4 ML (POx2): 25 mg/kg per os, Day −3 to 0 (6x), prophylactic): -0.3 g
- Body weight: % Difference from Baseline (g) (difference to vehicle group 2 at Day 0) (C57BL/6 mice [1]; Day 0, Group 5 ML (POx1): 50 mg/kg per os SID Day −2, −1, 0, prophylactic): -0.3 g
- Body weight: Estimate (g), change relative to vehicle Group 8 (C57BL/6 mice [1]; Day 0, Group 9 MH (POx1): 50 mg/kg per os SID Day 1, 2, 3, therapeutic, 6.0 Gy): 0.0 g
- Body weight: % Difference from Vehicle (C57BL/6 mice [1]; Day 3, Group 3 ML (IPx2): 25 mg/kg IP, Day −3 to 0 (6x), prophylactic): 0.6 g
- Body weight: % Difference from Vehicle (C57BL/6 mice [1]; Day 3, Group 4 ML (POx2): 25 mg/kg per os, Day −3 to 0 (6x), prophylactic): 0.7 g
- Body weight: % Difference from Vehicle (C57BL/6 mice [1]; Day 3, Group 5 ML (POx1): 50 mg/kg per os SID Day −2, −1, 0, prophylactic): 0.4 g
- Body weight: Estimate (g), change relative to vehicle Group 8 (C57BL/6 mice [1]; Day 3, Group 9 MH (POx1): 50 mg/kg per os SID Day 1, 2, 3, therapeutic, 6.0 Gy): 0.2 g
- compensation of weight loss relative to vehicle Group 8 (amounts up to) (C57BL/6 mice [1]; Day 3 to 30, Group 9 MH (POx1): 50 mg/kg per os SID Day 1, 2, 3, therapeutic, 6.0 Gy): up to 3.1 g
- Body weight: % Difference from Vehicle (C57BL/6 mice [1]; Day 9, Group 3 ML (IPx2): 25 mg/kg IP, Day −3 to 0 (6x), prophylactic): 0.5 g
- Body weight: % Difference from Vehicle (C57BL/6 mice [1]; Day 9, Group 4 ML (POx2): 25 mg/kg per os, Day −3 to 0 (6x), prophylactic): 0.6 g
- Body weight: % Difference from Vehicle (C57BL/6 mice [1]; Day 9, Group 5 ML (POx1): 50 mg/kg per os SID Day −2, −1, 0, prophylactic): 0.4 g
- Body weight: Estimate (g), change relative to vehicle Group 8 (C57BL/6 mice [1]; Day 9, Group 9 MH (POx1): 50 mg/kg per os SID Day 1, 2, 3, therapeutic, 6.0 Gy): 0.4 g
- Body weight: % Difference from Vehicle (C57BL/6 mice [1]; Day 15, Group 3 ML (IPx2): 25 mg/kg IP, Day −3 to 0 (6x), prophylactic): 0.1 g
- Body weight: % Difference from Vehicle (C57BL/6 mice [1]; Day 15, Group 4 ML (POx2): 25 mg/kg per os, Day −3 to 0 (6x), prophylactic): -0.8 g
- Body weight: % Difference from Vehicle (C57BL/6 mice [1]; Day 15, Group 5 ML (POx1): 50 mg/kg per os SID Day −2, −1, 0, prophylactic): -0.4 g
- Body weight: Estimate (g), change relative to vehicle Group 8 (C57BL/6 mice [1]; Day 15, Group 9 MH (POx1): 50 mg/kg per os SID Day 1, 2, 3, therapeutic, 6.0 Gy): 1.4 g
- Body weight: % Difference from Vehicle (C57BL/6 mice [1]; Day 21, Group 3 ML (IPx2): 25 mg/kg IP, Day −3 to 0 (6x), prophylactic): 1.0 g
- Body weight: % Difference from Vehicle (C57BL/6 mice [1]; Day 21, Group 4 ML (POx2): 25 mg/kg per os, Day −3 to 0 (6x), prophylactic): -0.7 g
- Body weight: % Difference from Vehicle (C57BL/6 mice [1]; Day 21, Group 5 ML (POx1): 50 mg/kg per os SID Day −2, −1, 0, prophylactic): -0.1 g
- Body weight: Estimate (g), change relative to vehicle Group 8 (C57BL/6 mice [1]; Day 21, Group 9 MH (POx1): 50 mg/kg per os SID Day 1, 2, 3, therapeutic, 6.0 Gy): 3.1 g
- Body weight: % Difference from Vehicle (C57BL/6 mice [1]; Day 30, Group 3 ML (IPx2): 25 mg/kg IP, Day −3 to 0 (6x), prophylactic): 0.1 g
- Body weight: % Difference from Vehicle (C57BL/6 mice [1]; Day 30, Group 4 ML (POx2): 25 mg/kg per os, Day −3 to 0 (6x), prophylactic): -1.1 g
- Body weight: % Difference from Vehicle (C57BL/6 mice [1]; Day 30, Group 5 ML (POx1): 50 mg/kg per os SID Day −2, −1, 0, prophylactic): 0.1 g
- Body weight: Estimate (g), change relative to vehicle Group 8 (C57BL/6 mice [1]; Day 30, Group 9 MH (POx1): 50 mg/kg per os SID Day 1, 2, 3, therapeutic, 6.0 Gy): 2.6 g
- Supporting variable: Body weight (trend) (C57BL/6 mice [1]; Group 9 MH (POx1): 50 mg/kg per os SID Day 1, 2, 3, therapeutic, 6.0 Gy): +
- testes degeneration, proportion by severity category (C57BL/6 mice [2]; Day 14, n.s. (p=0.264), Group 9 MH (POx1): 50 mg/kg per os SID Day 1, 2, 3, therapeutic, 6.0 Gy): higher proportion of testes in minimal category
- decreased cellularity of the bone marrow of both sternum and femur compared to vehicle-treated control Group 8 (C57BL/6 mice [2]; Day 14 and 30 necropsies, Group 9 MH (POx1): 50 mg/kg per os SID Day 1, 2, 3, therapeutic, 6.0 Gy): lower severity of decreased cellularity
- bone marrow cellularity decrease, category (C57BL/6 mice [2]; Day 30, Group 3 ML (IPx2): 25 mg/kg IP, Day −3 to 0 (6x), prophylactic, 5.8 Gy): minimal category
- Supporting variable: Bone marrow celluarity (trend) (C57BL/6 mice [2]; Group 3 ML (IPx2): 25 mg/kg IP, Day −3 to 0 (6x), prophylactic, 5.8 Gy): +
